According to patent US7842726B2, “Carnitine derivative, salt thereof, external skin preparation and cosmetic material” (Showa Denko K.K., priority 2005, dated 2010):
Where a name gives a salt, the structure may show the parent alone.

Key:
[1] = Percutaneous absorption through three-dimensional human skin model, two-chamber test; assay type: in vitro ADME; settings: 0.3% by mass solution, pH 7, 35° C., after 24 hours; compared with L-carnitine palmitate; FIG. 1
Protocol: The test substances were each dissolved in Dulbecco's PBS (−) containing 5% by mass of 1,2-hexanediol, followed by adding 1N NaOH to adjust the pH to 7. Consequently, 0.3% by mass solutions of the test substances were prepared. Two chambers were separated through a three-dimensional model of human skin tissue (TESTSKIN™ LSD-d, available from TOYOBO CO., LTD.). 3 ml of each test substance solution was placed into a chamber on the epidermis side, and 3 ml of Dulbecco's PBS (−) was placed into a chamber on the dermis side. They were stirred with magnetic stirrers at 35° C. for 24 hours.
After the lapse of 24 hours, 1 ml of the buffer solution in the dermis-side chamber was collected, and 0.5 ml of the solution collected was analyzed to determine free carnitine. The remaining portion of the solution collected was adjusted to pH 11 with 1N NaOH, was encapsulated in a 1.5 ml screw vial, and was allowed to stand at 80° C. for 6 hours, followed by cooling. The pH of the solution was adjusted to 7 with 1N HCl, whereby all acylcarnitine derivatives were decomposed to free carnitine. These solutions were each combined with 0.02 ml of 1N hydrochloric acid, 0.1 ml of 1.6% by mass 1-aminoanthracene-in acetone solution and 0.1 ml of 16% by mass aqueous EDC (1-ethyl-3-(3-dimethylaminopropyl)carbodiimide hydrochloride) solution, followed by sufficient stirring. The solutions were allowed to stand still at room temperature for 20 minutes and were washed with 3 ml of diethylether. The aqueous phases were filtered and were analyzed by reversed-phase high performance liquid chromatography (RPHPLC) (column: Phenomenex Synergi-RP, eluting solution: 45% acetonitrile, flow rate: 1.0 ml/min) to determine peak intensities assigned to 1-aminoanthracene-modified carnitine (excitation wavelength: 248 nm, fluorescent wavelength: 418 nm). The concentrations of carnitine derivatives and free carnitine originating from the test substances in the solution in the dermis-side chamber were calculated and determined from the aforesaid peak intensities. […]

[2] = Stability of carnitine derivatives in aqueous solution at 80° C. (RPHPLC); assay type: physicochemical; settings: 0.3% by mass in PBS(-) with 5% 1,2-hexanediol, pH 7, 80° C.; changes with time; FIG. 2
Protocol: The test substances were each dissolved in Dulbecco's PBS (−) containing 5% by mass of 1,2-hexanediol, followed by adding 1N NaOH to adjust the pH to 7. Consequently, 0.3% by mass solutions of the test substances were prepared. The solutions were tightly encapsulated in glass vials and were temperature controlled at 80° C. in a water bath.
After the lapse of a predetermined time, the solutions were collected and were analyzed by RPHPLC (column: Shodex C8-5B, eluting solution: 70% acetonitrile, flow rate: 1.0 ml/min). The remaining carnitine derivatives originating from the test substances were determined from the UV absorption intensity at 210 nm.

Human preadipocytes = test: Fat breakdown stimulation: triglyceride accumulation in adipocytes (oil red staining, colorimetry); assay type: cell-based; settings: for effect of stimulating fat metabolism: conclusion from Table 2, 50 μM, 5 days; for Triglyceride accumulation: relative to untreated adipocytes (100), 50 μM test substance, 5 days incubation
Protocol: Human preadipocytes (available from TOYOBO Co., LTD.) were seeded on a 96-well microplate and were incubated at 37° C. and 5% CO2 using human preadipocyte growth medium TAGM (available from TOYOBO Co., LTD.) while renewing the medium every two days. The growth medium was changed to human adipocyte differentiation medium TADM (available from TOYOBO Co., LTD.), and incubation was carried out for 5 days. Subsequently, the medium was changed to an evaluation medium as shown in Table 1 below without or with 50 μM of any of the test substances described below. The incubation was carried out for 5 days.
The adipocytes were washed with Dulbecco's PBS (−) three times and were formalin fixed. The adipocytes were stained with an oil red/water-isopropanol (1/1) solution, and were extracted with isopropanol. Triglyceride accumulated in the adipocytes was determined by a colorimetry method.

Structure (SMILES)	L-carnitine concentration (carnitine derivatives and free carnitine) passed to the dermis-side chamber [1]	residual ratio of carnitine derivatives in aqueous solution [2]	effect of stimulating fat metabolism (Human preadipocytes)	Triglyceride accumulation (Human preadipocytes)
CCCCCCCCCCCCCCC(C)C(=O)OC(CC(=O)[O-])C[N+](C)(C)C [L-carnitine 2-methylpalmitate hydrochloride]	comparable or higher L-carnitine concentrations than that obtained with L-carnitine palmitate	higher residual ratio and were exceptionally more stable in aqueous solutions than the acylcarnitines having a straight-chain acyl group	good effects of stimulating fat metabolism	89
C[N+](C)(C)C[C@H](O)CC(=O)[O-].Cl [L-carnitine hydrochloride, reference compound]	–	–	–	98
CCCCCCCCC(CCCCCC)C(=O)OC(CC(=O)[O-])C[N+](C)(C)C [L-carnitine 2-hexyldecanoate hydrochloride]	comparable or higher L-carnitine concentrations than that obtained with L-carnitine palmitate	higher residual ratio and were exceptionally more stable in aqueous solutions than the acylcarnitines having a straight-chain acyl group	good effects of stimulating fat metabolism	89
CCCCCCCCCCCCCCCC(=O)O[C@H](CC(=O)[O-])C[N+](C)(C)C.Cl [L-carnitine palmitate hydrochloride, reference compound]	–	–	–	87
CCCCCCC(CCCC)C(=O)OC(CC(=O)[O-])C[N+](C)(C)C [L-carnitine 2-butyloctanoate hydrochloride]	comparable or higher L-carnitine concentrations than that obtained with L-carnitine palmitate	higher residual ratio and were exceptionally more stable in aqueous solutions than the acylcarnitines having a straight-chain acyl group	good effects of stimulating fat metabolism	90
